Laboratory results taken from US9102620B2, “Deuterated N-ethyl-N-phenyl-1,2-dihydro-4-hydroxy-5-chloro-1-methyl-2-oxoquinoline-3-carboxamide, salts and uses thereof” (TEVA PHARMACEUTICAL INDUSTRIES, LTD., priority 2010, dated 2015).
Read-outs that look alike come from different tables or passages of the source.

Columns and labels:
CYP1A2 = conditions: human, 3 days; for Enzyme activity, Phenacetin O-dealkylation (CYP1A2) / Percent positive control, Phenacetin O-dealkylation (CYP1A2) activity: hepatocytes
Procedure: (§1) After treatment, the cells were incubated in situ with marker substrates for the analysis of phenacetin O-dealkylation (marker for CYP1A2) and midazolam 1′-hydroxylation (marker for CYP3A4/5) by LC/MS/MS.
(§2) Incubations of hepatocytes with probe substrates were conducted in accordance with SOP L5041.02. Approximately 24 hours after the last treatment, spent media was aspirated from the wells, and each well was rinsed two times with pre-warmed (37±2° C.) fresh culture media. Media was aspirated from the wells and reactions were started by addition of 200 μL pre-warmed media containing the probe substrate to each well. […] At 30 minutes, an aliquot (150 μL) of the incubation mixture was removed and added to a well of a 96-well plate containing 300 μL of stop reagent (acetonitrile) and internal standard (Table 2). The mixtures were mixed thoroughly and allowed to sit for at least 15 minutes at 2-8° C. Samples were centrifuged at 2000×g for 10 minutes at 2-8° C., and supernatant fractions were analyzed by LC/MS/MS.
(§3) All analyses were performed with validated LC/MS/MS methods. The procedures used for the analysis of each metabolite followed the applicable LC/MS/MS analytical method SOPs and are summarized in Table 2. The MS equipment was either an ABI Sciex (Applied Biosystems/MDS SCIEX) API 4000 or API 3000 instrument with Shimadzu HPLC pumps and autosampler systems.
(§4) Individual rates of reaction from like treatment groups were averaged, and for those groups with n≧3, standard deviations were determined. Fold increases were determined by dividing the enzymatic rate for each treatment group by that of the vehicle control. Percent positive control was calculated with the following equation: […]

CYP3A4/5 = conditions: human, 3 days; for Enzyme activity, Midazolam 1′-hydroxylation (CYP3A4/5) / Percent positive control, Midazolam 1′-hydroxylation (CYP3A4/5) activity: hepatocytes
Procedure: as §1, §2, §3, §4

[1] = DELAQ concentrations in rat plasma following oral administration of test item; format: in vivo; conditions: rats, oral 0.2 mg/kg, in average
Procedure: DELAQ in rat plasma was also determined under the following condition. The plasma was purified by on-line SPE after precipitation with LUDOX AS-40 colloidal silica solution followed by the analysis with HPLC with MS/MS detection. The main objectives of this example were: • Quantification of Compound 1, Compound 2, Compound 3 and Laquinimod in rat plasma using LC/MS/MS bioanalytical method. • Characterization of the pharmacokinetic profile of Compound 1, Compound 2, Compound 3 and Laquinimod following oral (PO) administration at a dose of 0.2 mg/kg. • The measurement DELAQ concentrations in the collected plasma samples. Blood was withdrawn from the rats at five different time points for the preparation of plasma. The concentrations of Compound 1, Compound 2, Compound 3, laquinimod, and DELAQ were determined in these plasma samples, using applicable LC/MS/MS methods. The concentrations of test items (Compound 1, Compound 2, Compound 3 and Laquinimod) and the concentration of DELAQ were determined in the plasma samples by using reliable LC/MS/MS assay.

| SMILES | Fold Increase, Phenacetin O-dealkylation (CYP1A2) activity (CYP1A2; 0.01 μM) [fold] | Fold Increase, Phenacetin O-dealkylation (CYP1A2) activity (CYP1A2; 0.05 μM) [fold] | Fold Increase, Phenacetin O-dealkylation (CYP1A2) activity (CYP1A2; 0.1 μM) [fold] | Fold Increase, Phenacetin O-dealkylation (CYP1A2) activity (CYP1A2; 1 μM) [fold] | Fold Increase, Phenacetin O-dealkylation (CYP1A2) activity (CYP1A2; 10 μM) [fold] | Enzyme activity, Phenacetin O-dealkylation (CYP1A2) (CYP1A2; 0.01 μM) [pmol/mg protein/min] | Percent positive control, Phenacetin O-dealkylation (CYP1A2) activity (CYP1A2; 0.01 μM) [%] | Enzyme activity, Phenacetin O-dealkylation (CYP1A2) (CYP1A2; 0.05 μM) [pmol/mg protein/min] | Percent positive control, Phenacetin O-dealkylation (CYP1A2) activity (CYP1A2; 0.05 μM) [%] | Enzyme activity, Phenacetin O-dealkylation (CYP1A2) (CYP1A2; 0.1 μM) [pmol/mg protein/min] | Percent positive control, Phenacetin O-dealkylation (CYP1A2) activity (CYP1A2; 0.1 μM) [%] | Enzyme activity, Phenacetin O-dealkylation (CYP1A2) (CYP1A2; 1 μM) [pmol/mg protein/min] | Percent positive control, Phenacetin O-dealkylation (CYP1A2) activity (CYP1A2; 1 μM) [%] | Enzyme activity, Phenacetin O-dealkylation (CYP1A2) (CYP1A2; 10 μM) [pmol/mg protein/min] | Percent positive control, Phenacetin O-dealkylation (CYP1A2) activity (CYP1A2; 10 μM) [%] | Fold Increase, Midazolam 1′-hydroxylation (CYP3A4/5) activity (CYP3A4/5; 0.01 μM) [fold] | Fold Increase, Midazolam 1′-hydroxylation (CYP3A4/5) activity (CYP3A4/5; 0.05 μM) [fold] | Fold Increase, Midazolam 1′-hydroxylation (CYP3A4/5) activity (CYP3A4/5; 0.1 μM) [fold] | Fold Increase, Midazolam 1′-hydroxylation (CYP3A4/5) activity (CYP3A4/5; 1 μM) [fold] | Fold Increase, Midazolam 1′-hydroxylation (CYP3A4/5) activity (CYP3A4/5; 10 μM) [fold] | also measured |
| --- | --- | --- | --- | --- | --- | --- | --- | --- | --- | --- | --- | --- | --- | --- | --- | --- | --- | --- | --- | --- | --- |
| [2H]C([2H])([2H])C([2H])([2H])N(C(=O)c1c(O)c2c(Cl)cccc2n(C)c1=O)c1ccccc1 [Compound 2, N-D5-ethyl-N-phenyl-1,2-dihydro-4-hydroxy-5-chloro-1-methyl-2-oxoquinoline-3-carboxamide] | 7.39 | 10.54 | 16.12 | 30.36 | 60.21 | 22.1 ± 2.7 | 23.3 | 31.6 ± 2.6 | 34.9 | 48.2 ± 2.4 | 55.2 | 90.8 ± 11.5 | 107 | 180 ± 8 | 216 | 0.91 | 0.77 | 0.72 | 0.56 | 0.51 | Enzyme activity, Midazolam 1′-hydroxylation (CYP3A4/5) (CYP3A4/5; 0.01 μM): 0.179 ± 0.006 pmol/mg protein/min; Percent positive control, Midazolam 1′-hydroxylation (CYP3A4/5) activity (CYP3A4/5; 0.01 μM): −2.24%; Enzyme activity, Midazolam 1′-hydroxylation (CYP3A4/5) (CYP3A4/5; 0.05 μM): 0.151 ± 0.009 pmol/mg protein/min; Percent positive control, Midazolam 1′-hydroxylation (CYP3A4/5) activity (CYP3A4/5; 0.05 μM): −5.94%; Enzyme activity, Midazolam 1′-hydroxylation (CYP3A4/5) (CYP3A4/5; 0.1 μM): 0.140 ± 0.010 pmol/mg protein/min; Percent positive control, Midazolam 1′-hydroxylation (CYP3A4/5) activity (CYP3A4/5; 0.1 μM): −7.46%; Enzyme activity, Midazolam 1′-hydroxylation (CYP3A4/5) (CYP3A4/5; 1 μM): 0.109 ± 0.010 pmol/mg protein/min; Percent positive control, Midazolam 1′-hydroxylation (CYP3A4/5) activity (CYP3A4/5; 1 μM): −11.5%; Enzyme activity, Midazolam 1′-hydroxylation (CYP3A4/5) (CYP3A4/5; 10 μM): 0.101 ± 0.003 pmol/mg protein/min; Percent positive control, Midazolam 1′-hydroxylation (CYP3A4/5) activity (CYP3A4/5; 10 μM): −12.7%; reduction in DELAQ concentrations compared to laquinimod treated animals [1]: about ten-fold |
| CCN(C(=O)c1c(O)c2c(Cl)cccc2n(C)c1=O)c1ccccc1 [Laquinimod, N-ethyl-N-phenyl-1,2-dihydro-4-hydroxy-5-chloro-1-methyl-2-oxoquinoline-3-carboxamide] | 8.43 | 18.06 | 21.75 | 43.79 | 61.02 | 25.2 ± 0.8 | 27.1 | 54.0 ± 4.5 | 62.3 | 65.1 ± 1.9 | 75.8 | 131 ± 12 | 156 | 183 ± 7 | 219 | 0.92 | 0.82 | 0.78 | 0.54 | 0.49 | Enzyme activity, Midazolam 1′-hydroxylation (CYP3A4/5) (CYP3A4/5; 0.01 μM): 0.180 ± 0.023 pmol/mg protein/min; Percent positive control, Midazolam 1′-hydroxylation (CYP3A4/5) activity (CYP3A4/5; 0.01 μM): −2.04%; Enzyme activity, Midazolam 1′-hydroxylation (CYP3A4/5) (CYP3A4/5; 0.05 μM): 0.161 ± 0.013 pmol/mg protein/min; Percent positive control, Midazolam 1′-hydroxylation (CYP3A4/5) activity (CYP3A4/5; 0.05 μM): −4.63%; Enzyme activity, Midazolam 1′-hydroxylation (CYP3A4/5) (CYP3A4/5; 0.1 μM): 0.151 ± 0.002 pmol/mg protein/min; Percent positive control, Midazolam 1′-hydroxylation (CYP3A4/5) activity (CYP3A4/5; 0.1 μM): −5.89%; Enzyme activity, Midazolam 1′-hydroxylation (CYP3A4/5) (CYP3A4/5; 1 μM): 0.106 ± 0.004 pmol/mg protein/min; Percent positive control, Midazolam 1′-hydroxylation (CYP3A4/5) activity (CYP3A4/5; 1 μM): −12.0%; Enzyme activity, Midazolam 1′-hydroxylation (CYP3A4/5) (CYP3A4/5; 10 μM): 0.0957 ± 0.0067 pmol/mg protein/min; Percent positive control, Midazolam 1′-hydroxylation (CYP3A4/5) activity (CYP3A4/5; 10 μM): −13.4% |
